Measured values published in the supplement of paper PMC10307832.

How the values were obtained:
Test in all cases: relative viability (nuclei count vs DMSO), 5 days (fraction); higher = more cells survive
XMD14-99 + Phenformin = compound: CN1CCN(CC1)C2=CC(=C(C=C2)NC3=NC(=C(S3)C(=O)C4=C(C=CC=C4Cl)Cl)N)OC [XMD14-99] + N=C(N)NC(=N)NCCc1ccccc1 [Phenformin] (partner 250 µM)
In short: (§1)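 For relative viability, nuclei counts in treated wells were divided by those in vehicle wells. Lung cancer cell lines had been pin-tool dosed in 1536-well plates the day after seeding and cultured for 5 days, then fixed and stained in one step (final 0.05% Triton X-100, 1% formaldehyde, 1 ug/ml Hoechst) and imaged at 4×. Doses were one drug alone or a fixed anchor-drug dose plus five library-drug doses (not always all listed) in √10 steps, and values are duplicate-plate medians.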

AZD1208 + Lapatinib = compound: N[C@@H]1CCCN(c2c(/C=C3\SC(=O)NC3=O)cccc2-c2ccccc2)C1 [AZD1208] + CS(=O)(=O)CCNCc1ccc(-c2ccc3ncnc(Nc4ccc(OCc5cccc(F)c5)c(Cl)c4)c3c2)o1 [Lapatinib] (partner 2 µM)
In short: as §1

AZD1208 + Bortezomib = compound: N[C@@H]1CCCN(c2c(/C=C3\SC(=O)NC3=O)cccc2-c2ccccc2)C1 [AZD1208] + CC(C)C[C@H](NC(=O)[C@H](Cc1ccccc1)NC(=O)c1cnccn1)B(O)O [Bortezomib] (partner 0.002 µM)
In short: as §1

XMD14-99 + Tozasertib = compound: CN1CCN(CC1)C2=CC(=C(C=C2)NC3=NC(=C(S3)C(=O)C4=C(C=CC=C4Cl)Cl)N)OC [XMD14-99] + Cc1cc(Nc2cc(N3CCN(C)CC3)nc(Sc3ccc(NC(=O)C4CC4)cc3)n2)n[nH]1 [Tozasertib] (partner 0.1 µM)
In short: as §1

Row | Cell Line | relative viability (XMD14-99 + Phenformin; first compound 0.08 µM) | relative viability (XMD14-99 + Phenformin; first compound 0.8 µM) | relative viability (XMD14-99 + Phenformin; first compound 2.53 µM) | relative viability (XMD14-99 + Phenformin; first compound 8 µM) | relative viability (AZD1208 + Lapatinib; first compound 0.08 µM) | relative viability (AZD1208 + Lapatinib; first compound 0.253 µM) | relative viability (AZD1208 + Lapatinib; first compound 0.8 µM) | relative viability (AZD1208 + Lapatinib; first compound 2.53 µM) | relative viability (AZD1208 + Lapatinib; first compound 8 µM) | relative viability (AZD1208 + Bortezomib; first compound 0.08 µM) | relative viability (AZD1208 + Bortezomib; first compound 0.253 µM) | relative viability (AZD1208 + Bortezomib; first compound 0.8 µM) | relative viability (AZD1208 + Bortezomib; first compound 2.53 µM) | relative viability (AZD1208 + Bortezomib; first compound 8 µM) | relative viability (XMD14-99 + Tozasertib; first compound 0.08 µM) | relative viability (XMD14-99 + Tozasertib; first compound 0.8 µM) | relative viability (XMD14-99 + Tozasertib; first compound 2.53 µM) | relative viability (XMD14-99 + Tozasertib; first compound 8 µM)
1 | HCC-366 | 0.647 | 0.636 | 0.564 | 0.554 | 1.06 | 1.17 | 0.951 | 1.13 | 0.933 | 1.02 | 1.09 | 0.943 | 1.03 | 0.973 | 0.117 | 0.109 | 0.657 | 0.0463
2 | HCC-827 | 0.406 | 0.37 | 0.377 | 0.308 | 0.15 | 0.192 | 0.189 | 0.173 | 0.226 | 1.13 | 1.06 | 0.97 | 1.07 | 1.14 | 0.393 | 0.394 | 0.342 | 0.404
3 | HOP-62 | 0.707 | 0.648 | 0.643 | 0.547 | 1.14 | 1.05 | 0.985 | 0.875 | 0.889 | 0.827 | 1.06 | 0.724 | 0.598 | 0.507 | 0.375 | 0.341 | 0.351 | 0.241
4 | LC-2-ad | 0.611 | 0.554 | 0.58 | 0.505 | 0.961 | 1.01 | 1.04 | 0.94 | 1.03 | 1.01 | 0.979 | 0.978 | 0.819 | 0.833 | 0.399 | 0.481 | 0.484 | 0.418
5 | LCLC-97TM1 | 0.431 | 0.414 | 0.466 | 0.355 | 1.03 | 0.92 |  | 0.882 | 0.546 | 0.671 | 0.737 | 0.51 | 0.762 | 0.475 | 0.401 | 0.238 | 0.202 | 0.211
6 | LOU-NH91 | 0.716 | 0.777 | 0.573 | 0.556 | 0.727 | 0.704 | 0.662 | 0.703 | 0.583 | 0.539 | 0.516 | 0.564 | 0.504 | 0.593 | 0.709 | 0.631 | 0.645 | 0.533
7 | LU99A | 0.888 | 0.917 | 0.728 | 0.603 | 0.864 | 0.985 | 0.937 | 0.919 | 0.728 | 1.07 | 1.2 | 1.27 | 1.12 | 0.904 | 0.294 | 0.236 | 0.212 | 0.196
8 | LXF-289 | 0.52 | 0.502 | 0.487 | 0.457 | 0.941 | 0.954 | 0.917 | 0.958 | 0.868 | 1.04 | 1.1 | 0.999 | 1.07 | 1.15 | 0.183 | 0.205 | 0.196 | 0.171
9 | NCI-H23 | 0.767 | 0.85 | 0.741 | 0.659 | 1.06 | 1.22 | 0.945 | 0.98 | 0.735 | 1.01 | 1.07 | 0.926 | 1.14 | 0.634 | 0.453 | 0.352 | 0.279 | 0.263
